Laboratory results: patent US9296694B2, “Azacyclic compounds” (ACADIA Pharmaceuticals Inc., priority 2000, dated 2016)
“Also recorded” adds a separate entry of the source. Structures can show the parent of a compound that is named as a salt.

Key:
5-HT2A receptor = molecular target: T1, 5-HT2A receptor (Homo sapiens, UniProt P28223); experiment: Receptor Selection and Amplification (R-SAT) assay, 5-HT2A inverse agonism; assay type: cell-based; conditions: for Percent Efficacy: compared to ritanserin
T1 construct: expressed in transfected cells; host or cells: NIH3T3 (mouse fibroblasts), pSI expression vector
Description: Briefly, NIH3T3 cells were grown in 96 well tissue culture plates to 70-80% confluence. Cells were transfected for 12-16 hours with plasmid DNAs using superfect (Qiagen Inc.) as per manufacture's protocols. R-SAT's were generally performed with 50 ng/well of receptor and 20 ng/well of Beta-galactosidase plasmid DNA. […] Large-scale transfections, cells were transfected for 12-16 hours, then trypsinized and frozen in DMSO. Frozen cells were later thawed, plated at 10,000-40,000 cells per well of a 96 well plate that contained drug. With both methods, cells were then grown in a humidified atmosphere with 5% ambient CO2 for five days. Media was then removed from the plates and marker gene activity was measured by the addition of the beta-galactosidase substrate ONPG (in PBS with 5% NP-40). […] All data were analyzed using the computer program XLFit (IDBSm).

[1] = tested on: DOI-induced head twitches in mice; experiment: Observation for head twitches in DOI-treated mice; assay type: in vivo; conditions: for MED (minimum effective dose in vivo): statistically significant reduction in head twitching score, DOI-treated mice, 0.1-30 mg/kg subcutaneous injection
Description: (§1) Instruments) were used for rat experiments (details on startle apparatus and measures, see Male Non-Swiss Albino mice and male Sprague-Dawley rats (Harlan Sprague-Dawley) were housed (4 mice/cage; 2 rats/cage) in rooms with temperature and humidity controlled and water and food (Harlan Teklad) freely available. Mice were kept on a 12-hr light:dark cycle, whereas rats were kept on a 12-hr reverse light:dark cycle. For locomotor and observation experiments in mice, plastic 20×20×30 cm activity cages were equipped with photocell beams (AccuScan Instruments). Startle chambers (San Diego Instruments) were used for rat experiments (for details on startle apparatus and measures, see Mansbach et al., (1988) Psychopharmacology 94:507-14).
Mice were treated with 2.5 mg/kg DOI i.p. Five min later, mice were treated with AC-90179 s.c. and placed into activity cages. Ten min later, mice were observed using a repeated sampling technique. […] Each dose combination was tested in a separate group of animals (n=8) and the experimenter was blind to drug conditions. Head twitch scores were averaged followed by analysis of variance (ANOVA) and post-hoc Dunnett's t-test comparisons.
The effect of various compounds on head twitch behavior in mice treated with DOI was observed as described in Example 139. Animals received 0.1-30 mg/kg of the compound indicated via subcutaneous injection. MED indicates the minimum effective dose at which a statistically significant reduction in head twitching score (described above) was observed. MED=minimum effective dose in vivo.

[2] = tested on: locomotor activity of mice (dizocilpine- or d-amphetamine-induced hyperactivity, spontaneous activity); experiment: Locomotor activity in mice; assay type: in vivo; conditions: for distance traveled (average): i.p., 15 min
Description: as §1
For hyperactivity experiments, mice were treated with 0.3 mg/kg dizocilpine or 3.0 mg/kg d-amphetamine i.p. 15 min before the session. Five minutes after the pretreatment, mice were treated with AC-90179 s.c. and placed into the activity cages. For spontaneous activity, AC-90179 was administered alone. Locomotor data were collected during a 15 min session without habituation in a lit room. Each dose combination was tested in a separate group of animals (n=8). Distance traveled (cm) was calculated and averaged followed by ANOVA and post-hoc Dunnett's t-test comparisons.

[3] = tested on: acoustic startle and prepulse inhibition in rats; experiment: Startle testing, prepulse inhibition (PPI) in rats; assay type: in vivo
Description: as §1
Rats were tested and groups (n=10) matched for levels of startle reactivity and prepulse inhibition (PPI; see Mansbach et al., (1988) Psychopharmacology 94:507-14). Two days later, test sessions started and consisted of a 5-min acclimation period with a constant background noise (65 dB), followed by 60 presentations of acoustic stimuli to measure acoustic startle responses. The 60 trials consisted of: twenty two 40-ms presentations of a 120 dB broadband pulse, ten 20-ms presentations of each prepulse intensity (68, 71, 77 dB) 100 ms prior to a 40-msec presentation of a 120 dB broadband pulse, and 8 NOSTIM trials in which no stimuli were delivered in order to assess general motor activation in the rats. Thirty min before testing, rats were treated with sterile water (s.c.), risperidone (1.0 mg/kg, i.p.), or AC-90179 (s.c.). Five min later, rats were administered DOI (0.5 mg/kg, s.c.) or 0.9% saline (s.c.). One-week later, rats were administered the same pretreatment drug or vehicle and crossed over to receive the treatment opposite to that they received the previous week. Startle magnitudes and percent PPI for the three prepulse intensities were calculated as described elsewhere (Bakshi, et al., (1994) J. Pharmacol. Exp. Ther. 271:787-94) and ANOVAs with repeated measures performed.

[4] = mice, DOI 2.5 mg/kg i.p., 0.1-30 mg/kg, s.c., 10 min

T1 sequence (P28223 whole entry): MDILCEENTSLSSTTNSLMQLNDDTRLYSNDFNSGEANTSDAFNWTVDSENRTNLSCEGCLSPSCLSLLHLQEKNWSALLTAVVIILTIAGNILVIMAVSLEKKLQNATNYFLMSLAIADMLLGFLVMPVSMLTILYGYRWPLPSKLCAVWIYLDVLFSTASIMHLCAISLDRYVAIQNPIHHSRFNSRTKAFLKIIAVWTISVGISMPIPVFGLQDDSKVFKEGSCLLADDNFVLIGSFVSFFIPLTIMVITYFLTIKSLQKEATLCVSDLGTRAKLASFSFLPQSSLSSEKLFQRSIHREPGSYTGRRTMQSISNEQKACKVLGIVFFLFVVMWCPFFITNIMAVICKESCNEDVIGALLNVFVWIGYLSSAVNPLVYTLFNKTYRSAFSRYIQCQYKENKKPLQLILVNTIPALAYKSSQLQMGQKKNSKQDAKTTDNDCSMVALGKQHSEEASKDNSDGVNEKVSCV

## Cc1ccc(CN(C(=O)Cc2ccc(N(C)C)cc2)C2CCN(C)CC2)cc1 [Compound 57MBT70-6D, N-((4-methylphenyl)methyl)-N-(1-methylpiperidin-4-yl)-2-(4-(N,N-dimethylamino)phenyl)acetamide hydrochloride]
5-HT2A receptor; Table 4 of Example 137
  IC50: 0.01 µM

## COc1ccc(CC(=O)N(Cc2ccc(Cl)cc2)C2CCN(C(C)C)CC2)cc1 [Compound 42ELH79, 2-(4-Methoxyphenyl)-N-(4-chlorbenzyl)-N-(1-isopropylpiperidin-4-yl) acetamide]
5-HT2A receptor; Table 4 of Example 137
  pIC50: 8.5
  Percent Efficacy: 110%
[1]
  MED (minimum effective dose in vivo): ≦10 mg/kg

## CCN1CCC(N(Cc2ccc(Cl)cc2)C(=O)Cc2ccc(OC)cc2)CC1 [Compound 42ELH85, 2-(4-Methoxyphenyl)-N-(4-chlorbenzyl)-N-(1-ethylpiperidin-4-yl)acetamide]
5-HT2A receptor; Table 4 of Example 137
  Percent Efficacy: 118%
[1]
  MED (minimum effective dose in vivo): ≦10 mg/kg

## COc1ccc(CC(=O)N(Cc2ccc(C)cc2)C2CCN(C)CC2)cc1 [Compound 50ELH27, 2-(4-Methoxyphenyl)-N-(4-methylbenzyl)-N-(1-methylpiperidin-4-yl)acetamide]
[2]; 0.3-10 mg/kg, s.c., 10 min, dizocilpine 0.3 mg/kg i.p.
  effect on hyperactivity induced by dizocilpine: attenuated
[2]; compound alone, s.c., only at the highest dose tested
  dose that reduced spontaneous locomotor activity: 30 mg/kg
[2]; hyperactivity induced by dizocilpine 0.3 mg/kg i.p., s.c.
  minimum effective dose against dizocilpine: 1 mg/kg
[3]; rats, 3-way repeated measures ANOVA
  effect on startle magnitude: significant effect of pretreatment
[3]; rats, DOI 0.5 mg/kg s.c., AC-90179 s.c., risperidone 1.0 mg/kg i.p.
  restoration of PPI in DOI-treated rats: effective in restoring this disruption especially at the higher doses; also recorded: significant effects
[3]; saline (vehicle)-treated rats, AC-90179 s.c., risperidone 1.0 mg/kg i.p.
  effect on PPI on its own: did not affect PPI on its own; also recorded: no effect
[1]; [4]
  effect on DOI-induced head-twitches: dose-related decrease
  minimum effective dose against DOI-induced head-twitches: 1 mg/kg
[1]; mice, DOI 2.5 mg/kg i.p., higher doses, s.c.
  effect on head twitch behavior at higher doses: completely eliminating head twitch behavior
[1]
  MED (minimum effective dose in vivo): 1 mg/kg

## C[C@]12N[C@H](Cc3ccccc31)c1ccccc12 [Dizocilpine, dizocilpine, reference compound]
[2]; 0.3 mg/kg
  distance traveled (average): 2625 cm

## C[C@H](N)Cc1ccccc1 [d-amphetamine, reference compound]
[2]; 3.0 mg/kg
  distance traveled (average): 3367 cm

## N-(2-Phenylethyl)-N-(piperidin-4-yl)-4-methoxyphenylmethylacetamide [Compound 26HCH80-2]
5-HT2A receptor; Table 1
  pIC50 (average): 7.78
5-HT2A receptor; percent maximal repression compared to ritanserin, Table 1
  Efficacy (average): 89%

## COc1ccc(CC(=O)N(Cc2ccc(Cl)cc2)C2CCN(C3CCCC3)CC2)cc1 [Compound 42ELH91, 2-(4-Methoxyphenyl)-N-(4-chlorbenzyl)-N-(1-cyclopentylpiperidin-4-yl)acetamide]
5-HT2A receptor; Table 4 of Example 137
  Percent Efficacy: 108%
[1]
  MED (minimum effective dose in vivo): >10 mg/kg
